From US12285434B2, “Therapeutic, preventive, or improvement agent for inflammatory disease and allergic disease” (The University of Tokyo, priority 2018, dated 2025)

Tests used:
[1] = system: histamine-induced vascular permeability in mouse ears; test: Modified Miles assay: histamine-induced vascular hyperpermeability (Evans blue extravasation); format: in vivo, mouse (C57BL/6); settings: 15 minutes, before 400 μg histamine
Protocol: Fifteen (15) minutes after the intracutaneous injection, a vehicle (80% acetone) or histamine (400 μg, manufactured by Molecular Probes) was percutaneously administered to the ventral surface of the ears. To evaluate vascular permeability, Evans blue (50 mg/kg, manufactured by Sigma) was injected intravenously 5 minutes after the administration of histamine. The mice were then euthanized by cervical dislocation 30 minutes after the injection of Evans blue. The ears were dissected, dried at 55° C., and weighed. Extravasated Evans blue present in the ears was extracted in formamide (manufactured by Molecular Probes), and quantified spectrophotometrically (manufactured by PerkinElmer Japan Co., Ltd.) at a wavelength of 610 nm.

[2] = system: DSS-induced colitis model mice; test: DSS-induced colitis: colitis severity (body weight, fecal score, colon length); format: in vivo, mouse (C57BL/6); settings: 1 mg/kg/day intraperitoneally on Days 9, 11 and 13
Text: (§1) C57BL/6 strain mice (male, 8 to 12 weeks old) were fed with water containing 2% dextran sodium sulfate (manufactured by MP Bio, hereinafter sometimes referred to as “DSS”) for 4 days to prepare colitis model mice (hereinafter, sometimes referred to as “colitis group” in Examples 7 to 10). The mice taken with DSS for 4 days were fed with normal water from Day 5. The DSS intake start date was defined as Day 1 of the test, and the day before the DSS intake start date was defined as Day 0 of the test. In addition, a group in which C57BL/6 strain mice (male, 8 to 12 weeks old) were fed with normal water was defined as a “healthy group” (the same applies to Examples 8 to 10).
In order to evaluate colitis severity, the fecal condition was evaluated and the body weight was measured daily for the colitis model mice and healthy group prepared in the above item (1). The fecal condition was evaluated based on the following five-grade fecal scores. Specifically, the fecal scores were 0: normal; 1: soft but still formed; 2: very soft; 3: diarrhea; and 4: bloody feces. In addition, the colon length was measured as an index of the colitis severity.
(§2) To investigate the role of 5,6-DiHETE in the healing phase, the colitis model mice prepared in Example 7(1) were intraperitoneally injected with 5,6-DiHETE (manufactured by Cayman Chemical) (50 μg/kg/day) or HC-067047 (manufactured by Cayman Chemical) (1 mg/kg/day) on Days 9, 11 and 13 of the test (hereinafter, sometimes referred to as “5,6-DiHETE-administered group” and “HC-067047-administered group,” respectively, in Examples 9 and 10). HC-067047 is known to inhibit an increase of calcium ion concentration in endothelial cells.
The colitis severity was determined according to the index and criteria described in Example 7(2).

[3] = system: DSS-induced colitis model mice; test: DSS-induced colitis: histologic score and colon edema (wet/dry weight ratio); format: in vivo, mouse (C57BL/6); settings: Day 14; 1 mg/kg/day intraperitoneally on Days 9, 11 and 13
Text: as §1, §2
Distal colon sections on Day 14 of the test in the healthy group, colitis group, 5,6-DiHETE-administered group and HC-067047-administered group were fixed in 4% paraformaldehyde for 24 hours, embedded in paraffin and cut into 2 μm-thick sections. Hematoxylin staining and eosin staining of these sections were performed according to a conventional method. The histologic score was then decided according to the description of Kruschewski M. et al., Digestive Diseases and Sciences, 46: 2336-2343 (2001) to evaluate the colitis severity.
The wet/dry weight ratio was used as an index of colon edema (Rachmilewitz D. et al., Gastroenterology, 97: 326-337(1989)). Specifically, the distal colon was collected, and the wet weight was measured. The distal colon was then dried at 60 C for 24 hours, and, thereafter, the dry weight was measured.

anaphylaxis model mice = test: Histamine-induced anaphylaxis: blood pressure and body temperature; format: in vivo, mouse (C57BL/6); settings: 200 mg/kg intravenously 15 minutes before histamine 50 mg/kg
Protocol: Histamine (50 mg/kg) lysed in a physiological saline solution was intravenously administered to C57BL/6 strain mice (male, 8 to 12 weeks old) to prepare anaphylaxis model mice (hereinafter, sometimes referred to as “anaphylaxis group”). […] L-NAME is an NO synthesis inhibitor. As indices of anaphylactic symptoms, a body temperature decrease and a blood pressure decrease were observed.

HUVECs = test: Endothelial barrier function: transendothelial electrical resistance (TER); format: cell-based, human
Protocol: (§3) In Examples 4 to 6, human umbilical vein endothelial cells (hereinafter, sometimes referred to as “HUVECs”, manufactured by Lonza) were cultured in EGM-2 (manufactured by Lonza K.K.). These cells (passages 4 to 9) were used for experiments after 4-hour starvation in EBM-2 (manufactured by Lonza K.K.) containing 2% FBS.
The in vitro endothelial barrier function was evaluated by measuring the transendothelial electrical resistance (hereinafter, sometimes referred to as “TER”) of the HUVECs prepared in the above item (1) over time. Specifically, the transendothelial electrical resistance was measured using an xCELLigence Real-Time Cell Analyzer DP system (manufactured by Roche). The system monitors changes in TER across an interdigitated microelectrode at the bottom of tissue culture E-plates (manufactured by Roche). The HUVECs (8,000 cells) were plated on the E-plates and incubated until confluent. Then, the following operation (a) or (b) was performed.
(a) Each reagent was added to plates on which the HUVECs were cultured, so as to give a vehicle, 1 U/mL thrombin, 1 μM forskolin, or 0.1 μM or 0.3 μM 5,6-DiHETE (FIGS. 4A and 4B).
(b) A vehicle or […] was added to plates on which the HUVECs were cultured, so as to attain 10 μM. […] Thirty (30) minutes after the addition, 10 μM histamine was added to each plate 30 minutes after the addition (FIGS. 4C and 4D).
In the above operations (a) and (b), the TER was measured every 60 seconds. For normalization, the cell index value at each time point is shown as a ratio relative to the initial value. The maximum normalized cell index after stimulation was quantified and represented as maximal response. Note that it is known that the disruption of the endothelial barrier function lowers the TER, but that the enhancement of the endothelial barrier function increases the TER.

NO production in HUVECs = test: Histamine-induced NO production (nitrite and nitrate); format: cell-based, human; settings: pretreatment 10 μM, 15 minutes; histamine 10 μM
Protocol: as §3
The HUVECs were washed three times with HEPES and incubated in HEPES supplemented with 1 mM L-arginine and 10 μM tetrahydrobiopterin. After equilibration for 30 minutes, the medium was exchanged, and the cells were incubated for additional 30 minutes. […] The conditioned media before and after the stimulation (100 μL each) were collected and centrifuged in each amount of 300 g for 3 minutes. The supernatants were collected, and used to measure nitrite and nitrate, as stable metabolites of NO, by an ENO-20 NOx analyzer (manufactured by Eicom Corporation). The degrees of increases of nitrite and nitrate levels after the stimulation were normalized with cellular protein contents.

mouse aortae = test: Measurement of vascular contraction of aorta (aortic ring specimens); settings: cumulative addition 0.001, 0.01, 0.1 and 1 μM
Protocol: After excision of the thoracic aortae from untreated mice and removal of fat and connective tissue, the aortae were cut into rings to prepare aortic ring specimens. The ring specimens were immersed in a liquid tank filled with a normal nutrient solution (physiological saline solution containing 136.9 mM NaCl, 5.4 mM KCl, 5.5 mM glucose, 23.8 mM NaHCO3, 1.5 mM CaCl2, 1.0 mM MgCl2 and 0.01 mM EDTA), and two stainless hooks were penetrated through the lumens of the ring specimens. One end of each of the stainless hooks was fixed, and the other end thereof was connected to a force-displacement transducer (T7-30-240, manufactured by Orientec Co., Ltd.) connected to a strain amplifier (3134 strain AMPL, manufactured by Yokogawa Test & Measurement Corporation). Then, the following operation (a), (b) or (c) was performed.
(a) Norepinephrine (manufactured by Sigma) was cumulatively added into the liquid tank containing the ring specimens after stabilization of each contraction (every about 30 minutes) so as to attain 0.001 μM, 0.01 μM, 0.1 μM and 1 μM, and this group was designated as a “norepinephrine-administered group” (n=4) (FIG. 3A). 5,6-DiHETE was cumulatively added into the liquid tank containing the ring specimen after stabilization of each contraction (every about 30 minutes) so as to attain 0.001 μM, 0.01 μM, 0.1 μM and 1 μM, and this group was designated as a “5,6-DiHETE-administered group” (n=4) (FIG. 3A).
(b) Norepinephrine was added into the liquid tank containing the ring specimens so as to attain 0.3 μM, and precontraction was induced by administration of norepinephrine (FIG. 3B). Then, after the contraction by the administration of norepinephrine was stabilized, acetylcholine (manufactured by Sigma) was cumulatively added after stabilization of each relaxation reaction (every about 15 minutes) so as to attain 0.03 μM, 0.1 μM, 0.3 μM and 1 μM, and this group was designated as an “acetylcholine-administered group” (FIG. 3B). After the contraction by the administration of norepinephrine was stabilized, 5,6-DiHETE was cumulatively added every about 15 minutes so as to attain 0.001 μM, 0.01 μM, 0.1 μM and 1 μM, and this group was designated as a “5,6-DiHETE-administered group” (n=4) (FIG. 3B).
(c) In order to verify the effect of 5,6-DiHETE on the acetylcholine administration, norepinephrine was added into the liquid tank containing the ring specimens so as to attain 1 μM. After the contraction by the administration of norepinephrine was stabilized, 5,6-DiHETE or a vehicle (solvent alone) was added so as to attain 1 μM. […]
In the above operations (a) to (c), tension (contractile force) generated in the aortic ring specimens was measured isometrically over time using the above force-displacement transducer under a resting tension of 3 mN, and recorded.

## CC/C=C\C/C=C\C/C=C\C/C=C\C=C\C(O)C/C=C\CCC(=O)O (stereo not drawn) [7-HDoHE]
[1]; pretreatment 0.1 μg/ear
  effect on histamine-induced dye extravasation: did not affect histamine-induced dye extravasation

## CC/C=C\CC(O)/C=C/C=C\CCCCCCCC(=O)O (stereo not drawn) [13-HOTrE]
[1]; pretreatment 0.1 μg/ear
  effect on histamine-induced dye extravasation: did not affect histamine-induced dye extravasation

## Cc1c(C(=O)Nc2cccc(C(F)(F)F)c2)cc(-c2ccccc2)n1CCCN1CCOCC1 [HC-067047, reference compound]
[2]
  recovery from colitis as compared with the colitis group: promoted in recovery from colitis
[3]
  colon edema, wet/dry weight ratio: 5.0±0.1
  histologic score of colitis: 2.8±0.4

## COC(=O)[C@@H](N)CCCNC(=N)N[N+](=O)[O-] [L-NAME]
Anaphylaxis model mice
  blood pressure: 106.6±8.8 mmHg
  body temperature decrease: −0.8±0.2 °C

## [Cl][La]([Cl])[Cl] [LaCl3]
[1]; pretreatment 250 μg/ear
  effect on histamine-induced dye extravasation: significantly inhibited dye extravasation

## CN(C)CCOC(c1ccccc1)c1ccccc1 [diphenhydramine, reference compound]
HUVECs; 10 μM pretreatment before histamine 10 μM
  histamine-induced reduction of TER: abrogated
NO production in HUVECs
  histamine-induced NO production: abrogated

## NC[C@H](O)c1ccc(O)c(O)c1 [norepinephrine, reference compound]
Mouse aortae
  contraction of aorta: contracted in a concentration-dependent manner

## thrombin
HUVECs; 1 U/mL, alone
  change of TER: significantly lowered the TER
